Patent US7026134B2 (priority 2001, dated 2006)
Values after ≈ are worked out from the molar mass of the structure shown. Read-outs that look alike come from different tables or passages of the source.

What was measured:
[1] = test system: IgG fraction of the antiserum raised to immunogen A (hapten A-BSA); format: binding, sheep; conditions: for IC50, OP: concentration of test opiate that causes 50% displacement of signal, Table 3, Example 13 (a); for IC50: standard concentration which produces 50% B/B0
Description: Aqueous solutions of the immunogens prepared in Examples 7 and 8 were formulated with Freund's Complete Adjuvant (FCA) to form emulsions consisting of 4 mg/ml immunogen A and 2 mg/ml immunogen B in 50% (v/v) FCA. Three sheep were immunized with each emulsion (1° immunizations), 0.25 ml being subcutaneously injected at each of four sites in the flank of each animal. The next immunizations (first boosts) contained 2 mg/ml immunogen A and 1 mg/ml immunogen B. Subsequent immunizations (boosts […]) contained 1 mg/ml of each immunogen. All boosts were emulsified in 50% (v/v) Freund's Incomplete Adjuvant (FIA) and administered to the appropriate sheep in the same manner as the 1° immunizations, at monthly intervals for 1 year. Blood sampling took place 7 to 14 days after each boost. Each sample was processed to produce antiserum which was further purified by caprylic acid and ammonium sulfate precipitation to yield an immunoglobulin G (IgG) fraction. The IgG fraction was evaluated by competitive ELISA microtiter plate assay, as described in Example 12 below.
(a) The wells of an enhanced binding 96-well polystyrene microtiter plate were coated with the IgG fraction of the antiserum raised to immunogen A (hapten A-BSA) (Example 7), diluted in 10 mM Tris, pH8.5 (125 μl/well). The appropriate antibody coating dilution was determined using standard ELISA chequerboard techniques. The plate was incubated for 2 hours at 37° C., washed 4 times with Tris-buffered saline containing Tween 20 (TBST) and tapped dry. […] 75 μl of conjugate A (hapten A-HRP) (Example 10), diluted in Tris buffer containing EDTA, D-mannitol, sucrose, thimerosal and BSA, was added to each of the wells. The appropriate dilution of conjugate was also determined using standard ELISA chequerboard techniques. The plate was incubated at 37° C. for 2 hours. The excess unbound conjugate was removed by washing 6 times over a 10 minute period with TBST. 125 μl of tetramethylbenzedine (TMB) substrate solution was added to each well of the plate that was then incubated for 15 to 20 minutes in the dark at room temperature. The reaction was terminated by addition of 125 μl 0.2M H2SO4 to each well. The absorbance was then measured at 450 nm using a microtiter plate reader.

[2] = test system: IgG fraction of the antiserum raised to immunogen B (hapten B-BSA); format: binding, sheep; conditions: for IC50, OP: concentration of test opiate that causes 50% displacement of signal, Table 3, Example 13 (b); for IC50: standard concentration which produces 50% B/B0
[3] = percentage cross-reactivity based on specificity to oxycodone, Table 1
[4] = standard concentration 0.5 ng/ml
[5] = standard concentration 25 ng/ml
[6] = standard concentration 100 ng/ml
[7] = standard concentration 250 ng/ml
[8] = standard concentration 500 ng/ml
[9] = percentage cross-reactivity based on specificity to oxycodone, Table 2
[10] = standard concentration 10 ng/ml
[11] = standard concentration 50 ng/ml
[12] = standard concentration 1000 ng/ml
[13] = standard concentration 2000 ng/ml

Row | Compound | % CR [1] [%] | IC50, OP [1] [µg/mL] | % CR [2] [%] | IC50, OP [2] [µg/mL] | % CR [1, 3] [%] | % B/B0 [1, 4] [%] | % B/B0 ([1]; standard concentration 1 ng/ml) [%] | % B/B0 [1, 5] [%] | % B/B0 [1, 6] [%] | % B/B0 [1, 7] [%] | % B/B0 [1, 8] [%] | IC50 ([1]; Table 1) [µg/mL] | % CR [2, 9] [%] | % B/B0 [2, 10] [%] | % B/B0 [2, 11] [%] | % B/B0 [2, 6] [%] | % B/B0 [2, 8] [%] | % B/B0 [2, 12] [%] | % B/B0 [2, 13] [%] | other results
1 | COc1ccc2c3c1O[C@H]1[C@@H](O)C=C[C@H]4[C@@H](C2)N(C)CC[C@@]341 [Codeine] | 2.2 | 0.3867 (≈ 1.29 µM) | <2.7 | >2 |  |  |  |  |  |  |  |  |  |  |  |  |  |  |  | 
2 | COc1ccc2c3c1O[C@H]1[C@@H](O)CC[C@H]4[C@@H](C2)N(C)CC[C@@]341 [Dihydrocodone] | <1.7 | >0.5 | <2.7 | >2 |  |  |  |  |  |  |  |  |  |  |  |  |  |  |  | 
3 | COc1ccc2c3c1O[C@H]1C(=O)CC[C@H]4[C@@H](C2)N(C)CC[C@]314 [Hydrocodone] | <1.7 | >0.5 | 75.6 | 0.0724 (≈ 0.242 µM) |  |  |  |  |  |  |  |  |  |  |  |  |  |  |  | 
4 | CN1CC[C@]23c4c5ccc(O[C@@H]6O[C@H](C(=O)O)[C@@H](O)[C@H](O)[C@H]6O)c4O[C@H]2[C@@H](O)C=C[C@H]3[C@H]1C5 [Morphine-3-glucuronide] | <1.7 | >0.5 | <2.7 | >2 |  |  |  |  |  |  |  |  |  |  |  |  |  |  |  | 
5 | CN1CC[C@]23c4c5ccc(O)c4O[C@H]2[C@@H](O)C=C[C@H]3[C@H]1C5 [Morphine] | <1.7 |  | <2.7 |  |  |  |  |  |  |  |  |  |  |  |  |  |  |  |  | 
6 | COc1ccc2c3c1O[C@H]1C(=O)CC[C@@]4(O)[C@@H](C2)NCC[C@]314 [Noroxycodone] |  |  |  |  | <1.7 | 99.3 | 100.2 | 99.3 | 97.7 | 96.1 | 92.8 | >0.5 | 23.4 | 90.7 | 70.9 | 65.0 | 43.7 | 32.5 | 24.4 | % B/B0 ([1]; standard concentration 5 ng/ml): 100.3%; % B/B0 [2, 7]: 52.0%; IC50 ([2]; Table 2): 0.2335 µg/mL (≈ 0.775 µM)
7 | COc1ccc2c3c1O[C@H]1C(=O)CC[C@@]4(O)[C@@H](C2)N(C)CC[C@]314 [Oxycodone] |  |  |  |  | 100.0 | 88.6 | 82.2 | 36.1 | 22.2 | 14.8 | 10.1 | 0.0087 (≈ 0.0276 µM) | 100.0 | 75.7 | 50.1 | 41.9 | 17.8 | 12.2 | 8.3 | 
8 | CN1CC[C@]23c4c5ccc(O)c4O[C@H]2C(=O)CC[C@@]3(O)[C@H]1C5 [Oxymorphone] |  |  |  |  | 26.5 | 93.0 | 90.5 | 57.1 | 39.2 | 29.2 | 24.4 | 0.0328 (≈ 0.109 µM) | <2.7 | 103.8 | 97.3 | 95.0 | 90.1 | 84.2 | 76.7 | % B/B0 ([1]; standard concentration 5 ng/ml): 75.1%; % B/B0 [2, 7]: 93.5%; IC50 ([2]; Table 2): >2 µg/mL
9 | COC1=CC=C2[C@H]3Cc4ccc(OC)c5c4[C@@]2(CCN3C)[C@H]1O5 [Thebaine] | 4.3 | 0.2032 (≈ 0.653 µM) | <2.7 | >2 |  |  |  |  |  |  |  |  |  |  |  |  |  |  |  | 
